This is an account of results in paper PMC5218480 (PLoS ONE, 2017).

The assay has as its system MV-4-11 cells. Nature of the assay: Gene expression microarray analysis (Affymetrix PrimeView) and GSEA. The assay is classed as cell-based, human. Further details: RFU PODN (11730768_x_at) / Fold change /veh PODN (11730768_x_at) / RFU LINC00158 (11744669_a_at) / Fold change /veh LINC00158 (11744669_a_at) / RFU DUSP10 (11751237_a_at) / Fold change /veh DUSP10 (11751237_a_at) / RFU ID3 (11757404_x_at) / Fold change /veh ID3 (11757404_x_at) / RFU PLEKHG5 (11737974_s_at) / Fold change /veh PLEKHG5 (11737974_s_at) / RFU LRRC4B (11730491_at) / Fold change /veh LRRC4B (11730491_at) / RFU GIMAP4 (11747438_a_at) / Fold change /veh GIMAP4 (11747438_a_at) / RFU KRT8 (11758183_x_at) / Fold change /veh KRT8 (11758183_x_at) / RFU CNN1 (11734310_a_at) / Fold change /veh CNN1 (11734310_a_at) / RFU VPS37D (11726825_at) / Fold change /veh VPS37D (11726825_at) / RFU C10orf10 (11716522_x_at) / Fold change /veh C10orf10 (11716522_x_at) / RFU KIR2DL2 /// KIR2DL4 /// KIR2DL5A /// KIR2DL5B /// KIR2DS1 /// KIR2DS2 /// KIR2DS3 /// KIR2DS4 /// KIR3DL3 /// KIR3DL3 /// KIR3DS1 (11738374_at) / Fold change /veh KIR2DL2 /// KIR2DL4 /// KIR2DL5A /// KIR2DL5B /// KIR2DS1 /// KIR2DS2 /// KIR2DS3 /// KIR2DS4 /// KIR3DL3 /// KIR3DL3 /// KIR3DS1 (11738374_at) / RFU C1QL1 (11718748_at) / Fold change /veh C1QL1 (11718748_at) / RFU TMPRSS4 (11747572_a_at) / Fold change /veh TMPRSS4 (11747572_a_at) / RFU HAMP (11756126_x_at) / Fold change /veh HAMP (11756126_x_at) / RFU RNFT2 (11725882_a_at) / Fold change /veh RNFT2 (11725882_a_at) / RFU NR4A2 (11747474_a_at) / Fold change /veh NR4A2 (11747474_a_at) / RFU ABCC12 (11746883_a_at) / Fold change /veh ABCC12 (11746883_a_at) / RFU TMEM136 (11760407_x_at) / Fold change /veh TMEM136 (11760407_x_at) / RFU CLDN22 /// WWC2 (11732394_at) / Fold change /veh CLDN22 /// WWC2 (11732394_at) / RFU HLA-DPB1 (11760878_x_at) / Fold change /veh HLA-DPB1 (11760878_x_at) / RFU SPINT1 (11716480_a_at) / Fold change /veh SPINT1 (11716480_a_at) / RFU GAP43 (11754022_s_at) / Fold change /veh GAP43 (11754022_s_at) / RFU A4GNT (11735810_at) / Fold change /veh A4GNT (11735810_at) / RFU PRB3 (11715151_x_at) / Fold change /veh PRB3 (11715151_x_at) / RFU TUBB4B (11761932_at) / Fold change /veh TUBB4B (11761932_at) / RFU CAPN14 (11732068_a_at) / Fold change /veh CAPN14 (11732068_a_at) / RFU TMCC2 (11721928_a_at) / Fold change /veh TMCC2 (11721928_a_at) / RFU IRGQ (11745062_a_at) / Fold change /veh IRGQ (11745062_a_at) / RFU FAM174B (11720279_a_at) / Fold change /veh FAM174B (11720279_a_at) / RFU TMPRSS4 (11748680_a_at) / Fold change /veh TMPRSS4 (11748680_a_at) / RFU FAM212B (11763350_a_at) / Fold change /veh FAM212B (11763350_a_at) / RFU PLEKHG5 (11743358_a_at) / Fold change /veh PLEKHG5 (11743358_a_at) / RFU ZSCAN30 (11745921_a_at) / Fold change /veh ZSCAN30 (11745921_a_at) / RFU CMKLR1 (11741424_a_at) / Fold change /veh CMKLR1 (11741424_a_at) / RFU LOC101060620 /// MAPK8IP1 (11723275_at) / Fold change /veh LOC101060620 /// MAPK8IP1 (11723275_at) / RFU SPTSSB (11747773_x_at) / Fold change /veh SPTSSB (11747773_x_at) / RFU PRSS12 (11739890_at) / Fold change /veh PRSS12 (11739890_at) / RFU BIN1 (11741810_x_at) / Fold change /veh BIN1 (11741810_x_at) / RFU WNT11 (11732464_a_at) / Fold change /veh WNT11 (11732464_a_at) / RFU C10orf10 (11716521_a_at) / Fold change /veh C10orf10 (11716521_a_at) / RFU C5orf56 (11738089_at) / Fold change /veh C5orf56 (11738089_at) / RFU CYB561 (11721691_x_at) / Fold change /veh CYB561 (11721691_x_at) / RFU ANKRD19P (11752326_a_at) / Fold change /veh ANKRD19P (11752326_a_at) / RFU OR2T12 /// OR2T33 /// OR2T8 (11738714_s_at) / Fold change /veh OR2T12 /// OR2T33 /// OR2T8 (11738714_s_at) / RFU VCAN (11748164_a_at) / Fold change /veh VCAN (11748164_a_at) / RFU JSRP1 (11732532_at) / Fold change /veh JSRP1 (11732532_at) / RFU KRTAP10-11 (11738290_x_at) / Fold change /veh KRTAP10-11 (11738290_x_at) / RFU MYO3A (11730013_a_at) / Fold change /veh MYO3A (11730013_a_at) / RFU EBF3 (11725865_a_at) / Fold change /veh EBF3 (11725865_a_at) / RFU CAMK2N1 (11719241_x_at) / Fold change /veh CAMK2N1 (11719241_x_at) / RFU C5orf56 (11738088_a_at) / Fold change /veh C5orf56 (11738088_a_at) / RFU OLFML3 (11715873_a_at) / Fold change /veh OLFML3 (11715873_a_at) / RFU LOC100653217 /// NTM (11731650_a_at) / Fold change /veh LOC100653217 /// NTM (11731650_a_at) / RFU MAPK11 (11762145_a_at) / Fold change /veh MAPK11 (11762145_a_at) / RFU FIZ1 (11724087_x_at) / Fold change /veh FIZ1 (11724087_x_at) / RFU OASL (11726364_x_at) / Fold change /veh OASL (11726364_x_at) / RFU SOX15 (11748057_x_at) / Fold change /veh SOX15 (11748057_x_at) / RFU CD79A (11719716_a_at) / Fold change /veh CD79A (11719716_a_at) / RFU HIST1H1D (11736915_at) / Fold change /veh HIST1H1D (11736915_at) / RFU CASKIN2 (11723855_a_at) / Fold change /veh CASKIN2 (11723855_a_at) / RFU LOC730098 (11760151_x_at) / Fold change /veh LOC730098 (11760151_x_at) / RFU OR4N2 (11742367_at) / Fold change /veh OR4N2 (11742367_at) / RFU PRRT2 (11749266_a_at) / Fold change /veh PRRT2 (11749266_a_at) / RFU SNX32 (11753110_a_at) / Fold change /veh SNX32 (11753110_a_at) / RFU CDHR5 (11726645_a_at) / Fold change /veh CDHR5 (11726645_a_at) / RFU RCAN1 (11760418_a_at) / Fold change /veh RCAN1 (11760418_a_at) / RFU FAM167A (11723789_a_at) / Fold change /veh FAM167A (11723789_a_at) / RFU FAM26E (11764081_at) / Fold change /veh FAM26E (11764081_at) / RFU ISYNA1 (11749810_s_at) / Fold change /veh ISYNA1 (11749810_s_at) / RFU ACY1 (11761880_at) / Fold change /veh ACY1 (11761880_at) / RFU 11764098_at / Fold change /veh 11764098_at / RFU SAMD14 (11745864_x_at) / Fold change /veh SAMD14 (11745864_x_at) / RFU NPB (11741838_a_at) / Fold change /veh NPB (11741838_a_at) / RFU TMPRSS6 (11731388_a_at) / Fold change /veh TMPRSS6 (11731388_a_at) / RFU KRTAP10-2 (11738614_at) / Fold change /veh KRTAP10-2 (11738614_at) / RFU ARHGAP8 /// PRR5-ARHGAP8 (11727945_x_at) / Fold change /veh ARHGAP8 /// PRR5-ARHGAP8 (11727945_x_at) / RFU KRTAP5-7 /// NADSYN1 (11734609_at) / Fold change /veh KRTAP5-7 /// NADSYN1 (11734609_at) / RFU RASL12 (11751679_a_at) / Fold change /veh RASL12 (11751679_a_at) / RFU CDKN2B (11736163_a_at) / Fold change /veh CDKN2B (11736163_a_at) / RFU PRF1 (11729649_at) / Fold change /veh PRF1 (11729649_at) / RFU, ZNF638 /// ZNF638-IT1 / Fold change vs veh, ZNF638 /// ZNF638-IT1 / RFU, PANK3 / Fold change vs veh, PANK3 / RFU, SH3YL1 / Fold change vs veh, SH3YL1 / RFU, ZEB2 / Fold change vs veh, ZEB2 / RFU, NRIP1 / Fold change vs veh, NRIP1 / RFU, PTTG1IP / Fold change vs veh, PTTG1IP / RFU, CAPN2 / Fold change vs veh, CAPN2 / RFU, MED14 / Fold change vs veh, MED14 / RFU, SNORA58 / Fold change vs veh, SNORA58 / RFU, C1orf63 / Fold change vs veh, C1orf63 / RFU, LRRFIP1 / Fold change vs veh, LRRFIP1 / RFU, NDUFAF7 / Fold change vs veh, NDUFAF7 / RFU, SLC12A2 / Fold change vs veh, SLC12A2 / RFU, IBTK / Fold change vs veh, IBTK / RFU, ESF1 / Fold change vs veh, ESF1 / Fold change vs veh, TMEM50B / RFU, TAOK1 / Fold change vs veh, TAOK1 / RFU, ACBD3 / Fold change vs veh, ACBD3 / RFU, TMA16 / Fold change vs veh, TMA16 / RFU, RWDD3 / Fold change vs veh, RWDD3 / RFU, BCAT1 / Fold change vs veh, BCAT1 / RFU, EDEM3 / Fold change vs veh, EDEM3 / RFU, TMEM33 / Fold change vs veh, TMEM33 / RFU, WDR75 / Fold change vs veh, WDR75 / RFU, AHCTF1 / Fold change vs veh, AHCTF1 / RFU, TFRC / Fold change vs veh, TFRC / RFU, ZDHHC17 / Fold change vs veh, ZDHHC17 / RFU, NOM1 / Fold change vs veh, NOM1 / RFU, ARL8B / Fold change vs veh, ARL8B / RFU, ZBTB11 / Fold change vs veh, ZBTB11 / RFU, TAMM41 / Fold change vs veh, TAMM41 / RFU, KIAA1704 /// LOC100996395 / Fold change vs veh, KIAA1704 /// LOC100996395 / RFU, ING1 / Fold change vs veh, ING1 / RFU, TRMT61B / Fold change vs veh, TRMT61B / RFU, FUBP3 / Fold change vs veh, FUBP3 / RFU, TP53 / Fold change vs veh, TP53 / RFU, TNKS2 / Fold change vs veh, TNKS2 / RFU, ZFP14 / Fold change vs veh, ZFP14 / RFU, ACTR2 / Fold change vs veh, ACTR2 / RFU, PPP3R1 / Fold change vs veh, PPP3R1 / RFU, PIK3R1 / Fold change vs veh, PIK3R1 / RFU, HNRNPA1 / Fold change vs veh, HNRNPA1 / RFU, RNF170 / Fold change vs veh, RNF170 / RFU, ZNF28 / Fold change vs veh, ZNF28 / RFU, RNGTT / Fold change vs veh, RNGTT / RFU, OGT / Fold change vs veh, OGT / RFU, BRD1 / Fold change vs veh, BRD1 / RFU, MARS / Fold change vs veh, MARS / RFU, ZNF655 / Fold change vs veh, ZNF655 / RFU, FAHD1 / Fold change vs veh, FAHD1 / RFU, BDP1 / Fold change vs veh, BDP1 / RFU, LRRCC1 / Fold change vs veh, LRRCC1 / RFU, ARID1A / Fold change vs veh, ARID1A / RFU, ZNF146 / Fold change vs veh, ZNF146 / RFU, ZNF330 / Fold change vs veh, ZNF330 / RFU, GPN3 / Fold change vs veh, GPN3 / RFU, C9orf123 / Fold change vs veh, C9orf123 / RFU, N4BP2L2 / Fold change vs veh, N4BP2L2 / RFU, ARFIP1 / Fold change vs veh, ARFIP1 / RFU, FAM179B / Fold change vs veh, FAM179B / RFU, BCL10 / Fold change vs veh, BCL10 / RFU, UHRF1BP1L / Fold change vs veh, UHRF1BP1L / RFU, BET1 / Fold change vs veh, BET1 / RFU, CNOT2 / Fold change vs veh, CNOT2 / RFU, ZNF268 / Fold change vs veh, ZNF268 / Fold change vs veh, ZNF507 / RFU, DGCR2 / Fold change vs veh, DGCR2 / RFU, WDSUB1 / Fold change vs veh, WDSUB1 / Fold change vs veh, HSP90B1 /// MIR3652 / RFU, ADSS / Fold change vs veh, ADSS / RFU, GK / Fold change vs veh, GK / RFU, ZNF148 / Fold change vs veh, ZNF148 / RFU, TAF9 / Fold change vs veh, TAF9 / RFU, SLC1A5 / Fold change vs veh, SLC1A5 / RFU, SLMO2 / Fold change vs veh, SLMO2 / RFU, ABCC4 / Fold change vs veh, ABCC4 / RFU, LOC101060439 /// RAP1B / Fold change vs veh, LOC101060439 /// RAP1B / RFU, RFX7 / Fold change vs veh, RFX7 / RFU, GTPBP10 / Fold change vs veh, GTPBP10 / RFU, CNEP1R1 / Fold change vs veh, CNEP1R1 / RFU, BIVM-ERCC5 /// ERCC5 / Fold change vs veh, BIVM-ERCC5 /// ERCC5 / RFU, ILF3 / Fold change vs veh, ILF3 / RFU 11762660_at / Fold change /veh 11762660_at / RFU VCAN (11757783_s_at) / Fold change /veh VCAN (11757783_s_at) / RFU DDX43 (11728927_at) / Fold change /veh DDX43 (11728927_at) / RFU KRT8 (11758188_x_at) / Fold change /veh KRT8 (11758188_x_at) / RFU NKD1 (11759106_at) / Fold change /veh NKD1 (11759106_at) / RFU SRD5A1 (11742802_a_at) / Fold change /veh SRD5A1 (11742802_a_at) / RFU TPSAB1 /// TPSB2 (11721975_s_at) / Fold change /veh TPSAB1 /// TPSB2 (11721975_s_at) / RFU GSTM3 (11746129_a_at) / Fold change /veh GSTM3 (11746129_a_at) / RFU IL23R (11737362_x_at) / Fold change /veh IL23R (11737362_x_at) / RFU TMEM51 (11727254_a_at) / Fold change /veh TMEM51 (11727254_a_at) / RFU PIWIL2 (11732686_x_at) / Fold change /veh PIWIL2 (11732686_x_at) / RFU ORM1 (11744905_x_at) / Fold change /veh ORM1 (11744905_x_at) / RFU CCDC152 (11743942_at) / Fold change /veh CCDC152 (11743942_at) / RFU ECM1 (11717891_a_at) / Fold change /veh ECM1 (11717891_a_at) / RFU IL23R (11748794_a_at) / Fold change /veh IL23R (11748794_a_at) / RFU TNFAIP8L3 (11732012_x_at) / Fold change /veh TNFAIP8L3 (11732012_x_at) / RFU MBOAT4 (11741988_at) / Fold change /veh MBOAT4 (11741988_at) / RFU 11764193_at / Fold change /veh 11764193_at / RFU TMEM53 (11763286_at) / Fold change /veh TMEM53 (11763286_at) / RFU MAGEB2 (11727129_at) / Fold change /veh MAGEB2 (11727129_at) / RFU TMEM200A (11744735_a_at) / Fold change /veh TMEM200A (11744735_a_at) / RFU CCDC152 (11751479_a_at) / Fold change /veh CCDC152 (11751479_a_at) / RFU FAM211A (11726209_a_at) / Fold change /veh FAM211A (11726209_a_at) / RFU RGS16 (11746705_a_at) / Fold change /veh RGS16 (11746705_a_at) / RFU VCAN (11755009_s_at) / Fold change /veh VCAN (11755009_s_at) / RFU RHOB (11743442_s_at) / Fold change /veh RHOB (11743442_s_at) / RFU RGS16 (11720943_a_at) / Fold change /veh RGS16 (11720943_a_at) / RFU RGS16 (11720944_at) / Fold change /veh RGS16 (11720944_at) / RFU, VPS4B / Fold change vs veh, VPS4B / RFU, CREB1 / Fold change vs veh, CREB1 / RFU, DNAJC13 / Fold change vs veh, DNAJC13 / RFU, GNAQ / Fold change vs veh, GNAQ / RFU, CDK5R1 / Fold change vs veh, CDK5R1 / RFU, ZRANB3 / Fold change vs veh, ZRANB3 / RFU, CUL4A / Fold change vs veh, CUL4A / RFU, CCNY / Fold change vs veh, CCNY / RFU, UFL1 / Fold change vs veh, UFL1 / RFU, COG3 / Fold change vs veh, COG3 / RFU, DIAPH2 / Fold change vs veh, DIAPH2 / RFU, SKA2 / Fold change vs veh, SKA2 / RFU, AFF3 / Fold change vs veh, AFF3 / RFU, LMF1 / Fold change vs veh, LMF1 / RFU, IPO11 / Fold change vs veh, IPO11 / RFU, DFFB / Fold change vs veh, DFFB / RFU, FOXP1 / Fold change vs veh, FOXP1 / RFU, CARD8 / Fold change vs veh, CARD8 / RFU, STRN3 / Fold change vs veh, STRN3 / RFU, ADK / Fold change vs veh, ADK / RFU, RASSF2 / Fold change vs veh, RASSF2 / RFU, WIPF1 / Fold change vs veh, WIPF1 / RFU, LARP1B / Fold change vs veh, LARP1B / RFU, RASA1 / Fold change vs veh, RASA1 / RFU, RB1 / Fold change vs veh, RB1 / RFU, PPFIA1 / Fold change vs veh, PPFIA1 / RFU, MAT2A / Fold change vs veh, MAT2A / RFU, CCT5 / Fold change vs veh, CCT5 / RFU, WDR92 / Fold change vs veh, WDR92 / RFU, CUX1 / Fold change vs veh, CUX1 / RFU, TTC7A / Fold change vs veh, TTC7A / RFU, TMEM135 / Fold change vs veh, TMEM135 / RFU, DEPTOR / Fold change vs veh, DEPTOR / RFU, CPM / Fold change vs veh, CPM / RFU, DNAJB6 / Fold change vs veh, DNAJB6 / RFU, CACNA2D3 / Fold change vs veh, CACNA2D3 / RFU, DTX4 / Fold change vs veh, DTX4 / RFU, TFCP2 / Fold change vs veh, TFCP2 / RFU, GMCL1 /// GMCL1P1 / Fold change vs veh, GMCL1 /// GMCL1P1 / RFU, AEBP2 / Fold change vs veh, AEBP2 / RFU, SNHG1 /// SNORD22 /// SNORD25 /// SNORD26 /// SNORD27 /// SNORD28 /// SNORD29 /// SNORD31 / Fold change vs veh, SNHG1 /// SNORD22 /// SNORD25 /// SNORD26 /// SNORD27 /// SNORD28 /// SNORD29 /// SNORD31 / Fold change (Aza/veh), C12orf56 (ProbeSet 11735607_a_at) / Fold change (ACY-1035/veh), C12orf56 (ProbeSet 11735607_a_at) / Fold change (Aza/veh), FGFR1OP (ProbeSet 11751329_s_at) / Fold change (ACY-1035/veh), FGFR1OP (ProbeSet 11751329_s_at) / Fold change (Aza/veh), VPS36 (ProbeSet 11739960_a_at) / Fold change (ACY-1035/veh), VPS36 (ProbeSet 11739960_a_at) / RFU SYPL1 (11715823_x_at) / Fold change /veh SYPL1 (11715823_x_at) / RFU IGFBP7 (11715501_s_at) / Fold change /veh IGFBP7 (11715501_s_at) / RFU REEP3 (11722064_at) / Fold change /veh REEP3 (11722064_at) / RFU IGLL1 (11728026_x_at) / Fold change /veh IGLL1 (11728026_x_at): dose or concentration left out as unconfirmed. The following applies: ProbeSet 11727827_x_at; LIST B.

On to `Nc1ccc(-c2cccs2)cc1NC(=O)c1ccc2c(c1)cc(C1CC1)n2CCN1CCOCC1` [ACY-1035], for which the “RFU, NDUFAF7” value stood at 59.45 RFU.
